From publication PMC10485906, “Development of a Dihydroquinoline–Pyrazoline GluN2C/2D-Selective Negative Allosteric Modulator of the N-Methyl-D-aspartate Receptor” (ACS Chemical Neuroscience, 2023)
Where two headings read alike, the source gives them in different places.

Test: Brain homogenate tissue binding and stability (RED device)
Assay type: in vitro ADME, mouse
Method: Carbamazepine (Apin Chemicals) served as a positive control for brain tissue binding. Test compounds and the positive control were initially dissolved in DMSO to make 1 mM stock solutions. […] A rapid equilibrium dialysis (RED) device (Thermo Scientific) containing a dialysis membrane with a molecular weight cutoff of 8000 Da was used to assess tissue binding and metabolic stability. […] The test compounds and positive control (200 μL of 5 μM solution) were added to the red chamber of the dialysis insert, while the white chamber was filled with dialysis buffer (350 μL). The RED device was then sealed with an adhesive film and incubated at 37 °C with shaking (300 rpm) for 4 h. For the initial time point (t = 0 min), 50 μL aliquots of test compounds and the positive control were added to 96-deep well plates (0.7 mL per well) and quenched with 400 μL of MeCN. Following dialysis, another 50 μL aliquot of the tested samples was removed from each well (brain homogenate and buffer) and diluted with an equal volume of the opposite matrix to nullify any matrix effects. […] The supernatant (100 μL) was subsequently transferred to 96-deep well plates for LC-MS/MS analysis. Prodrug metabolism and 2i concentrations were determined by fit-for-purpose LC-MS/MS methods on a nine-point calibration curve ranging from 0.12 to 7.5 μM.

fraction unbound at 4 h, 5 µM (C57BL/6, mouse, brain homogenate (4 times diluted), pH 7.4, mouse brain tissue binding (free fraction in brain), read-out: % Unbound): 0.135
fraction unbound at 4 h, 5 µM (C57BL/6, mouse, brain homogenate (4 times diluted), pH 7.4, mouse brain tissue binding, RED, 4 h, read-out: % Bound Mean ± SD (converted)): 0.135
fraction unbound at 4 h, 5 µM (C57BL/6, mouse, brain homogenate (4 times diluted), pH 7.4, mouse brain tissue binding, RED, 4 h, read-out: % Bound R1 (converted)): 0.131
fraction unbound at 4 h, 5 µM (C57BL/6, mouse, brain homogenate (4 times diluted), pH 7.4, mouse brain tissue binding, RED, 4 h, read-out: % Bound R2 (converted)): 0.14
fraction unbound at 4 h, 5 µM (C57BL/6, mouse, brain homogenate (4 times diluted), pH 7.4, mouse brain tissue binding, read-out: fu): 0.135
remaining at 4 h, 5 µM (C57BL/6, mouse, brain homogenate (4 times diluted), pH 7.4, starting concentration 5 μM, 4 h): 105%
recovery at 4 h, 5 μM (C57BL/6, pH 7.4, mouse brain tissue binding, RED, 4 h): 91%
Structure (SMILES): NC(=O)N1c2ccccc2C=Cc2ccccc21 [Carbamazepine, reference compound]
